The values below come from US20230055705A1, “SUBSTITUTED THIOPHENE CARBOXAMIDES AND DERIVATIVES THEREOF” (Bayer Aktiengesellschaft, priority 2019, published 2023).

The structures appear in SMILES notation. Like-named read-outs stand apart in the source and are kept apart here. Some results are limits rather than exact numbers.

Data set [1] relates to salicylate responsive promoter sequence of the PR1 (pathogenesis-related protein I) gene (AT2G14610). Kind of data set: Induction of defense gene expression in Arabidopsis thaliana (PR1 promoter-GFP reporter plants). The format is in vivo. The following applies: Arabidopsis thaliana, 72 h, 3rd day after spraying, mock treated leaves set as 1.00, read-out: relative fluorescence value; for fold induction at 75 ppm: 75 ppm of compound. As to the method: Arabidopsis thaliana reporter plants containing the coding sequence of a green fluorescent protein (GFP) linked to the salicylate responsive promoter sequence of the PR1 (pathogenesis-related protein I) gene (AT2G14610) were grown for five days and then sprayed with compounds. On the 3rd day after spraying, plant fluorescence was assessed with a MacroFluo instrument from Leica Microsystems (Wetzlar, Germany). Fluorescences were quantified with the Meta-Morph Microscopy Automation & Image Analysis Software (Molecular Devices, Sunnyvale, Calif., United States). Background fluorescence in mock treated leaves was set as 1.00.

Data set [2] relates to Xanthomonas campestris pv. campestris. As to the kind of experiment: Xanthomonas campestris pv. campestris in vitro cell test. The format is cell-based. The settings on record: read-out: efficacy (inhibition of bacteria growth). Here is the method: • Solvent: DMSO • Culture medium: LB broth medium (Luria Broth Miller) Sigma • Inoculum: bacteria suspension
Compounds were solubilized in DMSO and the solution used to prepare the required range of concentrations. The final concentration of DMSO used in the assay was ≤1%.
(§1) Inoculum was prepared from a pre-culture of bacteria grown in liquid medium and diluted to the desired optical density (OD).
(§2) Compounds were evaluated for their ability to inhibit bacteria growth in liquid culture assay. The compounds were added in the desired concentrations to culture medium containing the bacteria suspension. After 24 h of incubation, the efficacy of compounds was determined by spectrometric measurement of bacteria growth. Inhibition was determined by comparing the absorbance values in wells containing the compounds with the absorbance in control wells without active ingredients.

The test system of data set [3] is Pseudomonas syringae pv. tomato. Kind of data set: Pseudomonas syringae pv. tomato in vitro cell test. The format is cell-based. The settings on record: 20 ppm of active ingredient, 24 h incubation, read-out: efficacy (inhibition of bacteria growth). As to the method:
Culture medium: LB broth medium (Luria Broth Miller) Sigma
Inoculum: bacteria suspension
Compounds were solubilized in DMSO and the solution used to prepare the required range of concentrations. The final concentration of DMSO used in the assay was 1%.
as §1, §2

Data set [4] has as its system Colletotrichum lindemuthianum. Kind of data set: In vivo preventive test on Colletotrichum lindemuthianum (Antrachnose on bean). The following applies: 144 h, inoculation 72 h after spraying, evaluated 6 days after inoculation, read-out: efficacy; for pest or weed control at 500 ppm: 500 ppm of active ingredient; for pest or weed control at 31 ppm: 31 ppm of active ingredient. Here is the method:
(§3) The tested active ingredients were prepared by homogenization in a mixture of acetone/Dimethyl sulfoxide/Tween®, and then diluted with water to obtain the desired active material concentration. The young plants of bean were treated by spraying the active ingredient prepared as described above. Control plants were treated only with an aqueous solution of acetone/Dimethyl sulfoxide/Tween®.
After 72 hours, the plants were contaminated by spraying the leaves with an aqueous suspension of Colletotrichum lindemuthianum spores. The contaminated bean plants were incubated for 24 hours at 20° C. and at 100% relative humidity and then for 5 days at 20° C. and at 90% relative humidity. The test was evaluated 6 days after the inoculation. 0% means an efficacy which corresponds to that of the control plants while an efficacy of 100% means that no disease was observed.
Compound CMP1 was tested in an in vivo preventive test on Colletotrichum lindemuthianum (Antrachnose on bean) in the same conditions as described in Example F.

In a further data set the test system is Peronospora parasitica. Kind of data set: In vivo preventive test on Peronospora parasitica (Crucifer downy mildew). The settings on record: Hyaloperonospora parasitica, in Brassica oleracea, 120 h, cabbage, evaluated 5 days after inoculation, read-out: efficacy; for pest or weed control at 31 ppm: 31 ppm of active ingredient; for pest or weed control at 500 ppm: 500 ppm of active ingredient; for pest or weed control at 125 ppm: 125 ppm of active ingredient. As to the method:
The tested active ingredients were prepared by homogenization in a mixture of acetone/Dimethyl sulfoxide/Tween®, and then diluted with water to obtain the desired active material concentration. The young plants of cabbage were treated by spraying the active ingredient prepared as described above. Control plants were treated only with an aqueous solution of acetone/Dimethyl sulfoxide/Tween®.
After 72 hours, the plants were contaminated by spraying the leaves with an aqueous suspension of Peronospora parasitica spores. The contaminated cabbage plants were incubated for 5 days at 20° C. and at 100% relative humidity.
The test was evaluated 5 days after the inoculation. 0% means an efficacy which corresponds to that of the control plants while an efficacy of 100% means that no disease was observed.
Compounds CMP2 and CMP3 were tested in an in vivo preventive test on Peronospora parasitica (Crucifer downy mildew) in the same conditions as described in Example G.

In data set [5] the test system is Xanthomonas campestris pv. campestris. As to the kind of experiment: In vivo preventive test on Xanthomonas campestris pv. campestris (black rot on cabbage). The settings on record: for pest or weed control at 125 ppm: 125 ppm of active ingredient. Here is the method:
The tested active ingredients were prepared by homogenization in a mixture of acetone/Dimethyl sulfoxide/Tween®, and then diluted with water to obtain the desired active material concentration.
The young plants of cabbage were treated by spraying the active ingredient prepared as described above. Control plants were treated only with an aqueous solution of acetone/Dimethyl sulfoxide/Tween®.
After 72 hours, the plants were contaminated by spraying the leaves with an aqueous bacteria suspension of Xanthomonas campestris pv. campestris. The contaminated cabbage plants were incubated for 8 or 10 days at 27° C. at 95% relative humidity.
The test was evaluated 8 or 10 days after the inoculation. 0% means an efficacy which corresponds to that of the control plants while an efficacy of 100% means that no disease was observed. […]
Compounds CMP1, CMP2, CMP3 and CMP4 were tested in an in vivo preventive test on Xanthomonas campestris pv. campestris (black rot on cabbage) in the same conditions as described in Example H.

The next data set relates to Uromyces appendiculatus. Kind of data set: In vivo preventive test on Uromyces appendiculatus (bean rust). The settings on record: 240 h, evaluated 10 days after inoculation, read-out: efficacy; for pest or weed control at 125 ppm: 125 ppm of active ingredient; for pest or weed control at 500 ppm: 500 ppm of active ingredient. As to the method:
as §3
After 72 hours, the plants were contaminated by spraying the leaves with an aqueous suspension of Uromyces appendiculatus spores. The contaminated bean plants were incubated for 24 hours at 20° C. and at 100% relative humidity and then for 9 days at 20° C. and at 70-80% relative humidity. The test was evaluated 10 days after the inoculation. 0% means an efficacy which corresponds to that of the control plants while an efficacy of 100% means that no disease was observed.
Compounds CMP5 and CMP6 were tested in an in vivo preventive test on Uromyces appendiculatus (bean rust) in the same conditions as described in Example I.

Data set [6] in a line: LogP by HPLC on reversed phase columns (EEC directive 79/831 Annex V.A8). The format is physicochemical. The settings on record: reversed phase HPLC columns. The essentials: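 LogP derived from retention time by linear interpolation against a C3–C16 alkan-2-one calibration series of known LogP. Measured by HPLC on reversed-phase columns following EEC 79/831 Annex V.A8. UV spectra over 200–400 nm at signal peaks gave lambda-max.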

Data set [7] has as its system Pseudomonas syringae pv. tomato. Kind of data set: In vivo preventive test on Pseudomonas syringae pv. tomato (bacterial speck on tomato). The following applies: evaluated 5 or 6 days after inoculation, read-out: efficacy; for pest or weed control at 500 ppm: 500 ppm of active ingredient; for pest or weed control at 31 ppm: 31 ppm of active ingredient. Here is the method: The tested active ingredients were prepared by homogenization in a mixture of acetone/Dimethyl sulfoxide/Tween®, and then diluted with water to obtain the desired active material concentration. The young plants of tomato were treated by spraying the active ingredient prepared as described above. Control plants were treated only with an aqueous solution of acetone/Dimethyl sulfoxide/Tween®.
After 72 hours, the plants were contaminated by spraying the leaves with an aqueous bacteria suspension of Pseudomonas syringae pv. tomato. The contaminated tomato plants were incubated for 4 days in saturated atmosphere at 22° C. day/20° C. night—70% HR and then for 1 or 2 days at 22° C. day/20° C. night at 70-80% relative humidity.
The test was evaluated 5 or 6 days after the inoculation. 0% means an efficacy which corresponds to that of the control plants while an efficacy of 100% means that no disease was observed.
Compounds CMP1 and CMP4 were tested in an in vivo preventive test on Pseudomonas syringae pv. tomato (bacterial speck on tomato) in the same conditions as described in Example J.

Setting [8] is: 20 ppm of active ingredient, 24 h incubation.
Setting [9] is: evaluated 8 or 10 days after inoculation, read-out: efficacy.
Where [10] appears, read: method [a]: LC-UV, in an acidic range, with 0.1% formic acid in water and acetonitrile as eluent (linear gradient from 10% to 95% acetonitrile).
The mark [11] stands for this setting: 31 ppm of active ingredient, evaluated 8 or 10 days after inoculation, read-out: efficacy.
Where [12] appears, read: method [a]: LC-UV, acidic range, 0.1% formic acid in water and acetonitrile as eluent (linear gradient 10% to 95% acetonitrile).

Consider `CCOC(=O)C(Cc1c[nH]c2ccccc12)NC(=O)c1sc(Cl)c(Cl)c1Cl` (stereo not shown) [I.013], for which the fold induction at 300 ppm in data set [1] is > 2. The inhibition at 20 ppm in data set [2] (setting [8]) and in data set [3] was ≤ 30% each time. For the same compound, the pest or weed control at 500 ppm in [4] was 80 to 89%; in the data set with Peronospora parasitica, 90 to 100%; in the data set with Uromyces appendiculatus it was 90 to 100%. Besides, the pest or weed control at 31 ppm with Peronospora parasitica was in the range of 80 to 89%. Besides, the pest or weed control at 125 ppm in data set [5] (setting [9]) is 80 to 89%; in the data set with Uromyces appendiculatus, 70 to 79%. For the same compound, in [6] (setting [10]), the chromatographic logP (commonly a lipophilicity value derived from retention on a column) was determined as 4.44.
On to `N#CCNC(=O)c1sc(Cl)c(Cl)c1Cl` [I.025, 3,4,5-trichloro-N-(cyanomethyl)thiophene-2-carboxamide], for which the fold induction at 75 ppm in data set [1] was > 2. Moreover, the fold induction at 300 ppm in data set [1] was > 2. Moreover, the inhibition at 20 ppm in data set [2] (setting [8]) and in data set [3] was ≤ 30% throughout. Further, the pest or weed control at 31 ppm in data set [4] lay within 90 to 100%; with Peronospora parasitica it was 80 to 89%; in data set [5] (setting [11]) it was 70 to 79%. Also, the pest or weed control at 500 ppm in [4] lay within 90 to 100%; in the data set with Peronospora parasitica, 90 to 100%; in [7], 80 to 89%. Besides, the pest or weed control at 125 ppm in the data set with Peronospora parasitica fell in the range of 80 to 89%. Moreover, the chromatographic logP in data set [6] (given in the preparation examples, method not marked) turned out to be 2.59; in data set [6] (setting [10]), 2.64.
`CCOC(=O)C(COC)NC(=O)c1sc(Cl)c(Cl)c1Cl` (stereo not shown) [I.059]: the fold induction at 75 ppm in data set [1] is > 2. Further, in data set [1], the fold induction at 300 ppm is > 2. Further, the inhibition at 20 ppm in [2] (setting [8]) and in data set [3] was ≤ 30% each time. The figures for the pest or weed control at 31 ppm (in [4]; with Peronospora parasitica; in [5] (setting [11])) were 70 to 79%, 80 to 89% and 90 to 100%, respectively. For the same compound, the pest or weed control at 500 ppm (in data set [4]; in the data set on Peronospora parasitica; in the data set on Uromyces appendiculatus; in data set [7]) was 90 to 100% in each case. The pest or weed control at 125 ppm is 70 to 79% with Peronospora parasitica, 70% in data set [5] (setting [9]) and 90 to 100% in the data set with Uromyces appendiculatus. For the same compound, in data set [6] (setting [10]), the chromatographic logP was 3.83.
Turning to `COC(=O)C(NC(=O)c1sc(Cl)c(Cl)c1Cl)c1cccs1` (stereo not shown) [I.124], in data set [1], the fold induction at 75 ppm is > 2. Further, the fold induction at 300 ppm in data set [1] was > 2. Also, the inhibition at 20 ppm in data set [2] (setting [8]) and in data set [3] was ≤ 30% in each case. Further, the pest or weed control at 31 ppm was 90 to 100% in data set [4], 90 to 100% with Peronospora parasitica and 80 to 89% in data set [7]. Further, the pest or weed control at 125 ppm in the data set with Peronospora parasitica and in the data set on Uromyces appendiculatus was 90 to 100% each time. Further, in data set [6] (setting [12]), the chromatographic logP was 4.22.
As to `CNC(=S)SC[C@H](NC(=O)c1sc(Cl)c(Cl)c1Cl)C(=O)OC` [I.140], the fold induction at 75 ppm in data set [1] was > 2. Moreover, the fold induction at 300 ppm in [1] was > 2. The inhibition at 20 ppm in [2] (24 h) and in data set [3] was ≤ 30% throughout. The pest or weed control at 31 ppm fell in the range of 90 to 100% with Peronospora parasitica; 90 to 100% in data set [5] (read-out: efficacy, 31 ppm of active ingredient, evaluated 8 or 10 days after inoculation); 70 to 79% in data set [7]. The pest or weed control at 125 ppm in the data set with Peronospora parasitica and in the data set on Uromyces appendiculatus was 90 to 100% each time. The same compound registered a chromatographic logP in [6] (setting [12]) of 3.52.
